Reference: patent US20240158384A1, “CB2 RECEPTOR AGONISTS” (The Board of Trustees of the Leland Stanford Junior …, priority 2020, published 2024)
pEC50, pIC50: −log10 of the molar value.

Legend:
GPR55 = GPR55 (Homo sapiens, UniProt Q9Y2T6); test: Off-target activity GPR55 (agonist, antagonist, PAM modes); format: cell-based
Procedure: (§1) Detailed characterization data was collected for Compound 22. Primary assays were carried out according to Examples 2 and 3, while other assays were carried out according to standard methods.

Microsomal stability = format: in vitro ADME
Procedure: as §1

human CB2R = human CB2R (Homo sapiens, UniProt P34972); test: cAMP Hunter eXpress GPCR assay, human CB2: inhibition of forskolin-stimulated cAMP in CHO cells; format: cell-based; design: host or cells: CHO cells
human CB2R, sequence (P34972 whole entry): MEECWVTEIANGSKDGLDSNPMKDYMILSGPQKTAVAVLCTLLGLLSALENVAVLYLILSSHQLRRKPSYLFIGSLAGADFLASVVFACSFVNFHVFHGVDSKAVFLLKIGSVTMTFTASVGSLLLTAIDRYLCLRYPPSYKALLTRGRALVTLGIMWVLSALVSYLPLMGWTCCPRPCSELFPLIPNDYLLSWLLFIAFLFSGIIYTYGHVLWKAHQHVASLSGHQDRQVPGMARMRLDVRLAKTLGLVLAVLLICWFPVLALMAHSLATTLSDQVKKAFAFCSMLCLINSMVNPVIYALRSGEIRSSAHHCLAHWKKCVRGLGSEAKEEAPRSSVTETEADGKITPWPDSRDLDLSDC
Procedure: (§2) Briefly, cAMP Hunter eXpress Cells were seeded 18-24 h prior to the in a 96-well tissue culture treated assay plate and incubated in 5% CO2 at 37° C. in a humidified incubator. After removal of cell media, agonist compound and forskolin prepared in cell assay buffer was added and incubated at 37° C. The CB1 cAMP assay was stimulated with 20 μM final concentration of forskolin with 40 minutes incubation time. The CB2 cAMP assay was stimulated with 25 μM final concentration of forskolin with 35 minutes incubation time. The assay was stopped by incubation with antibody and working solution for 1 h at room temperature. After over 3 h incubation at room temperature in the dark with enzyme acceptor solution, chemiluminescence was measured on a CLARIOstar plate reader (BMG LABTECH Inc., Cary, NC, USA).

GPR119 = target: T1, GPR119 (Homo sapiens, UniProt Q8TDV5); test: Off-target activity GPR119 (agonist, antagonist, PAM modes); format: cell-based
T1 sequence (Q8TDV5 1-335): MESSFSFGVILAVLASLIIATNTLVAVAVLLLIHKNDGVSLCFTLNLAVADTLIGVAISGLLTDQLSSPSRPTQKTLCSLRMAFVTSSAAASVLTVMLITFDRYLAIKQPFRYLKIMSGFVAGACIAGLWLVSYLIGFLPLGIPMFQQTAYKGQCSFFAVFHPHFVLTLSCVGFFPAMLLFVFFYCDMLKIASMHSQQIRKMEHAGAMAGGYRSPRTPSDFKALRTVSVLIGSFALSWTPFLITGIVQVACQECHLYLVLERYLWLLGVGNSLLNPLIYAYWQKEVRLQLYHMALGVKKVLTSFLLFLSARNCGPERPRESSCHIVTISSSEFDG
Procedure: as §1

Male C57Bl6J mice = test: Spontaneous locomotor activity in activity chamber; format: in vivo, mouse; details: mice, compound alone i.p., 90 minutes after dosing, vs vehicle
Neurons/Microglia = test: Cytotoxicity (Neurons/Microglia); format: cell-based
Procedure: as §1

168 GPCRs = test: Broad screening panel gpcrMAX; format: cell-based; details: gpcrMAX at 70 nM against 168 GPCRs
Procedure: as §1

human CB1R = target: T2, human CB1R (Homo sapiens, UniProt P21554); test: cAMP Hunter eXpress GPCR assay, human CB1: inhibition of forskolin-stimulated cAMP in CHO cells; format: cell-based
T2 construct: host or cells: CHO cells
T2 sequence (P21554 whole entry): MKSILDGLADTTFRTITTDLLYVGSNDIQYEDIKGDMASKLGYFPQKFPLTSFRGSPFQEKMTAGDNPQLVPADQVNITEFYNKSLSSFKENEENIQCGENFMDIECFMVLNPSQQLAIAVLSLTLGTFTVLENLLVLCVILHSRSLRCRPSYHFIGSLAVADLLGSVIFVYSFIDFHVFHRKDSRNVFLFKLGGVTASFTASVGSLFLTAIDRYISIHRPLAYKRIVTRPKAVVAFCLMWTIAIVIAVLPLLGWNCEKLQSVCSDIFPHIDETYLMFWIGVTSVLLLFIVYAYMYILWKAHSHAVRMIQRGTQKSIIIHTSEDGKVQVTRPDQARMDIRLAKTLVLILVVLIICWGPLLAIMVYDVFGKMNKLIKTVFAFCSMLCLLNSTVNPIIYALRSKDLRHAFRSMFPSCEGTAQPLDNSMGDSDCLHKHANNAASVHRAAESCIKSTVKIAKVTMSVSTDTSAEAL
Procedure: as §2

Caco-2 = test: In vitro permeability Caco-2; format: in vitro ADME
Procedure: as §1

[1] = Mouse hepatocytes metabolic stability; format: in vitro ADME
Procedure: as §1

GPR55, sequence (Q9Y2T6 whole entry, species assumed): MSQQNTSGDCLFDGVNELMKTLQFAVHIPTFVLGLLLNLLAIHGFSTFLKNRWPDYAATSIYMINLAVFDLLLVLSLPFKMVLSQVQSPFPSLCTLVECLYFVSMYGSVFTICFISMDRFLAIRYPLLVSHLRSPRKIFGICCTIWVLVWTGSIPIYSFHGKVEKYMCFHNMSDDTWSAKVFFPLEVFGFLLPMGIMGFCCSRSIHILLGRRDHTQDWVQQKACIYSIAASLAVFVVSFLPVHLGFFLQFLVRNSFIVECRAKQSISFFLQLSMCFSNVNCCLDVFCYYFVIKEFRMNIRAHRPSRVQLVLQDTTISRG

With `CC(C)(CO)c1cc(NC(=O)N2CCCN2c2ccc(C(F)(F)F)cc2)no1` [Compound 22, N-(5-(1-hydroxy-2-methylpropan-2-yl)isoxazol-3-yl)-2-(4-(trifluoromethyl)phenyl)pyrazolidine-1-carboxamide] the pEC50 (GPR55) was under 5.00, the pIC50 (GPR55) was under 5.00 and the “Microsomal stability, clearance class” value (Microsomal stability) was “Low clearance”. For the same compound, the half-life (Microsomal stability; microsomes, read-out: Microsomal stability t ½) was 2 h, the pEC50 (human CB2R; Activity in primary assay: CB2 EC50, Table 6, hCB2 cAMP, agonist mode, mean of n = 3-5 expts on ≥2 batches) was 7.17 and the “Selectivity (related family)” value (human CB2R; CB1/CB2 cAMP) was 150 fold selectivity. For the same compound, the “Selectivity (pathway)” value (human CB2R; CB2 cAMP/CB2 beta-arrestin) was 9 fold selectivity, the “CB2 agonist character (in words)” value (human CB2R; cAMP assay, CP-55940 as full agonist control) was “potent agonists of CB2” and the “Selectivity for CB2 over CB1 (in words)” value (human CB2R; cAMP assays hCB1 vs hCB2) was “selective for CB2 over CB1”. For the same compound, the pEC50 (GPR119) was under 5.00, the pIC50 (GPR119) was under 5.00 and the “Distance moved / spontaneous locomotor activity” value (Male C57Bl6J mice) was “do not exhibit significantly different distance moved compared to the vehicle”. For the same compound, the “Cytotoxicity (Neurons/Microglia)” value (Neurons/Microglia) was “not toxic”, the “Activity in broad screening panel” value (168 GPCRs) was “No significant off” and the pEC50 (human CB1R) was under 5.00. The In vitro permeability (Caco-2) was “High”, the “Mouse hepatocytes metabolic stability, clearance class” value [1] was “Medium clearance” and the half-life ([1]; read-out: Mouse hepatocytes metabolic stability t ½) was over 2 h.
